Earlier results as cited in patent US6689384B2, “Stable pergolide mesylate and process for making same” (Teva Pharmaceuticals Industries Ltd., priority 2000, dated 2004).
Where a name gives a salt, the structure may show the parent alone.

Experiments:
[1] = test system: secretion of prolactin; settings: in humans
[2] = test system: serum concentrations of growth hormone; settings: in humans
[3] = test system: serum concentrations of luteinizing hormone; settings: in humans
[4] = oral administration, 14C radio-labeled
[5] = test system: plasma proteins

Row | administered radioactivity recovered from expired CO2 [4] | administered radioactivity recovered from the urine [4] | bound to plasma proteins [5] | SMILES | secretion of prolactin [1] | serum concentrations of growth hormone [2] | serum concentrations of luteinizing hormone [3]
1 | ~5% | approximately 55% | – | CCCN1CC(CSC)CC2c3cccc4[nH]cc(c34)CC21 (stereo not drawn) [Pergolide mesylate, 8(beta)-[(Methylthio)methyl]-6-propylergoline monomethanesulfonate] | inhibits | transient rise | decrease
2 | – | – | approximately 90% | CCCN1C[C@H](CSC)C[C@@H]2c3cccc4[nH]cc(c34)C[C@H]21 [Pergolide] | – | – | –
